# Reference: patent publication US5173502A, “Substituted trifluoropropan-1-yl-imidazole alpha 2-receptor anagonists” (Adir et Compagnie, priority 1990, dated 1992)
# Assays:
# α1 = experiment: In vivo test: return of the eye to a normal position (xylazine-induced exophthalmia) in rats, α1-antagonist potential; parameters: species or system rat
# Procedure: (§1) In vivo α2 -antagonism test
# (§2) The α2 -antagonist properties of the compounds of the invention were determined according to a method described by F. Colpaert et al., (DRUG Development Research 7, 125-140, 1986) by measuring the effects produced by those compounds on the loss of the correcting reflex and exophthalmia induced in rats by xylazine, a known agonist of α2-adrenergic receptors in the central nervous system.
# (§3) The reestablishment of the righting reflex measures the α2 -antagonist potential of the compounds, whilst the return of the eye to a normal position measures the α1 -antagonist potential.
# α2-adrenergic receptors = experiment: In vivo α2-antagonism test: reestablishment of the righting reflex lost through xylazine in rats; parameters: species or system rat; conditions: xylazine-induced loss of righting reflex
# Procedure: as §1, §2, §3
compound,measurement,setting,value
"Cl.FC(F)(F)C(Cc1c[nH]cn1)c1ccccc1 (centres unmarked) [Example 2, 4-(2-Phenyl-3,3,3-trifluoropropan-1-yl)-imidazole hydrochloride]",ED50 (α1),α1,higher than 10 mg/kg
same,ED50 (α2),α2-adrenergic receptors,5 mg/kg
